Experimental findings from patent EP0116208A1, “Mitomycin analogues” (KYOWA HAKKO KOGYO CO., LTD., priority 1982, dated 1984) are described below.

By LD50 is commonly meant the dose expected to kill half of the subjects tested.

One data set relates to Sarcoma 180 solid tumour. The data set can be described thus: Effect on Sarcoma 180 solid tumour (ED50, chemotherapeutic index). In kind it is in vivo, ddy mice. Particulars: Anti-tumour activity; ratio of LD50 to ED50; ED50 = dose giving T/C 0.5 of Sarcoma 180 solid tumour volume, intraperitoneal injection. The text has this:
(1) Effect on Sarcoma 180 solid tumour:
5 x 10^6 cells of Sarcoma 180 solid tumour were innoculated into the abdominal cavities of groups of ddy mice, each group consisting of 5 mice. 7..days after this, on each occasion, the tumour cells were collected from the ascites of the mouse. The cells were washed with a sterilized physiological sodium chloride solution and used to prepare a cell suspension containing 5 x 10^7 cells per ml of a sterilized physiological solution of sodium chloride, of which 0.1 ml was injected under the skin of the right armpit of a ddy male mouse (body weight 20 ±2 g). A test compound was dissolved in a physiological solution of sodium chloride or a similar solution containing Tween 80 (a surfactant commercially available from Atlas Chemical Industries, Inc., U.S.A.). 24 hours after the implantation of the tumours cells, the test compound (0.1 to 0.2 ml) was injected into the test mice intraperitoneally. In order to determine the antitumour activity of the test compound, 7 days after the implantation of the tumour cells, on each occasion, the major axis (a) and minor axis (b) of the tumour were measured to calculate the volume of the tumour ['a' x ^Ib'/2]. The anti-tumour effect was evaluated by the ratio of the tumour volume in the test animals (T) to the corresponding volume of the control (untreated) animals (C).
(2) Determination of ED50.
A dose capable of reducing the volume of a Sarcoma 180 solid tumour to 50% of the corresponding volume of the untreated group on average was defined as the ED50. T/C ratios and the doses were respectively plotted on the ordinate in arithmetic scale and abscissa in logarithmic scale on graph paper, from which the relationship between the doses and the T/C ratios was calculated as a straight line by the least square method. From the straight tropic line thus-obtained, the dose corresponding to a T/C of 0.5 was determined.

Data set [1] can be described thus: Effect upon the number of peripheral leukocytes (WBC 4000). To be noted: mouse, Toxicity against bone marrow, WBC 4000 = dose giving 4000 leukocytes/mm3, Sarcoma 180 bearing mice, read-out: WBC 4000/ ED50. In kind it is in vivo. As for the experimental part:
(5) Effect upon the number of peripheral leukocytes:
5 x 10^6 cells of Sarcoma 180 solid tumour were implanted under the skin of each mouse at the right armpit. 24 hours after this, venous blood (0.02 ml) was collected from the eyepit of the mouse and suspended in Cell-Kit Seven solution (10 ml; commercially available from Toa Iryo Denshi K.K., Japan).
To the suspension, a drop of saponin solution was added to dissolve the red cells and the number of leukocytes were counted using a microcell counter. The number of leukocytes and the corresponding dose were respectively plotted on the ordinate in arithmetic scale and on the abscissa in logarithmic scale on graph paper to investigate the relationship between dosage and the number of peripherical leukocytes. A dose capable of giving 4000 leukocytes/mm3 was defined as WBC 4000, which corresponded to about 1/2 the number of peripherical leukocytes in normal mice.
The greater the ratio of WBC 4000 to ED50 the smaller the decrease in the number of peripherical leukocytes viz. the lower the toxicity against bone marrow in the area of the effective dose.

A further data set can be described thus: Acute toxicity (LD50). Particulars: mouse, in vivo; death ratio observed for 14 days; Behrens-Korber's method. Set-up: species or system mice. From the text:
(3) Acute toxicity (LD50):
On each occasion, the test compound was given to the test animal.

As to `CC1=C(NCCSSCCNC2=C(C)C(=O)C3=C(C2=O)C(COC(N)=O)C2(O)C4C(CN32)N4C)C(=O)C2=C(C1=O)N1CC3C(N3C)C1(O)C2COC(N)=O` (stereo not drawn) [a, 7-N,7'-N'-dithiodiethylenedimitomycin D], the C.I. in the data set on Sarcoma 180 solid tumour is reported as above 2.99. Also, in data set [1], the selectivity ratio amounted to 2.29. Moreover, the LD50 at 336 h in the data set “Acute toxicity (LD50)” is above 60 mg/kg.

For the compound `CC1=C(NCCSSCCN)C(=O)C2=C(C1=O)N1CC3C(N3C)C1(O)C2COC(N)=O` (stereo not drawn) [c, 7-N-[2-(2-aminoethyl)dithioethyl]mitomycin D], the C.I. in the data set on Sarcoma 180 solid tumour was 3.11. The selectivity ratio in data set [1] was found to be 1.87. For the same compound, in the data set “Acute toxicity (LD50)”, the LD50 at 336 h came to 74.3 mg/kg.

Take `COC12C(COC(N)=O)C3=C(C(=O)C(C)=C(NC4CSSC4)C3=O)N1CC1NC12` (stereo not drawn) [j, 7-N-(1,2-dithiolan-4-yl)mitomycin C]: the median lethal dose (LD50) at 336 h in “Acute toxicity (LD50)” turned out to be 5.25 mg/kg.

Regarding `CC1=C(NC2CSSC2)C(=O)C2=C(C1=O)N1CC3C(N3C)C1(O)C2COC(N)=O` (stereo not drawn) [l, 7-N-(1,2-dithiolan-4-yl)mitomycin D], the LD50 at 336 h in “Acute toxicity (LD50)” amounted to 35.6 mg/kg.

Turning to `CCSSCCNC1=C(C)C(=O)C2=C(C1=O)C(COC(N)=O)C1(OC)C3NC3CN21` (stereo not drawn) [g, 7-N-(2-ethyldithioethyl)mitomycin C], in the data set on Sarcoma 180 solid tumour, the C.I. is reported as 1.64. Further, the selectivity ratio in data set [1] amounted to 3.76. The LD50 at 336 h in “Acute toxicity (LD50)” turned out to be 5.4 mg/kg.

Take `COC12C(COC(N)=O)C3=C(C(=O)C(C)=C(NCCSSCCNC4=C(C)C(=O)C5=C(C4=O)C(COC(N)=O)C4(OC)C6NC6CN54)C3=O)N1CC1NC12` (stereo not drawn) [s, 7-N-, 7'-N'-dithiodiethylenedimitomycin C]: the C.I. in the data set on Sarcoma 180 solid tumour is 2.98. Also, the selectivity ratio in data set [1] was found to be 2.63. Further, the LD50 at 336 h in the data set “Acute toxicity (LD50)” was found to be 18.8 mg/kg.

For the compound `COC12C(COC(N)=O)C3=C(C(=O)C(C)=C(NCCSSCC(O)CO)C3=O)N1CC1NC12` (stereo not drawn) [o, 7-N-[2-(2,3-dihydroxypropyl)dithioethyl]mitomycin C], the median lethal dose (LD50) at 336 h in the data set “Acute toxicity (LD50)” was found to be 22.5 mg/kg.

`COC12C(COC(N)=O)C3=C(C(=O)C(C)=C(NCCSSCCO)C3=O)N1CC1NC12` (stereo not drawn) [i, 7-N-[2-(2-hydroxyethyl)dithioethyl]mitomycin C]: in the data set with Sarcoma 180 solid tumour, the C.I. is listed as at most 2.12. In addition, in data set [1], the selectivity ratio turned out to be 2.13. Also, in “Acute toxicity (LD50)”, the LD50 at 336 h is at most 11.2 mg/kg.

Consider `COC12C(COC(N)=O)C3=C(C(=O)C(C)=C(NCCSSCCN)C3=O)N1CC1NC12` (stereo not drawn) [r, 7-N-[2-(2-aminoethyl)dithioethyl)mitomycin C], for which, in the data set on Sarcoma 180 solid tumour, the C.I. is recorded as 0.73. Besides, the selectivity ratio in data set [1] was determined as 1.25. For the same compound, in the data set “Acute toxicity (LD50)”, the LD50 at 336 h amounted to 13.5 mg/kg.

In the case of `COC12C(COC(N)=O)C3=C(C(=O)C(C)=C(NCCSSCCNC4=C(C)C(=O)C5=C(C4=O)C(COC(N)=O)C4(OC)C6C(CN54)N6C)C3=O)N1CC1C2N1C` (stereo not drawn) [t, 7-N, 7'-N'-dithiodiethylenediporfiromycin], the C.I. in the data set with Sarcoma 180 solid tumour is 2.15. The selectivity ratio in data set [1] is 1.34. Moreover, the 50% lethal dose (LD50) at 336 h in “Acute toxicity (LD50)” was found to be 33.8 mg/kg.
